This note sets out measurements from ChEMBL document CHEMBL1156695, “The novel primaquine derivatives of N-alkyl, cycloalkyl or aryl urea: synthesis, cytostatic and antiviral activity evaluations” (Eur J Med Chem, 2008).

One data set has as its system Human alphaherpesvirus 2. Description: Antiviral activity against HSV2 infected in HEL cells assessed as reduction of virus-induced cytopathogenicity. The data set is classed as functional, organism-based. (In general: Cytopathic effects are the visible damage that an infection or toxin causes in cultured cells.)
The next data set relates to SW-620. Description: Cytostatic activity against human SW620 cells after 72 hrs by MTT assay. The class given is functional, cell-based. Conditions: SW-620, 72 h. A general note: Tetrazolium assays rely on reduction of a dye to a coloured formazan, in cell work by metabolically active cells.
Data set [1] can be described thus: Cytostatic activity against human WI38 cells after 72 hrs by MTT assay. The data set is classed as cell-based. The note with it: WI-38, 72 h.
The test system of data set [2] is Respiratory syncytial virus. The data set is described as follows: Antiviral activity against respiratory syncytial virus infected in HeLa cells assessed as reduction of virus-induced cytopathogenicity. The data set is classed as functional, organism-based.
A further data set concerns L1210. The data set is described as follows: Cytostatic activity against mouse L1210 cells after 72 hrs by MTT assay. The class given is functional, cell-based. The note with it: L1210, 72 h.
In another data set the test system is Human alphaherpesvirus 1. The data set is described as follows: Antiviral activity against HSV1 infected in HEL cells assessed as reduction of virus-induced cytopathogenicity. The class given is functional, organism-based.
Data set [3] concerns Vesicular stomatitis virus. Description: Antiviral activity against vesicular stomatitis virus infected in HeLa cells assessed as reduction of virus-induced cytopathogenicity. The class given is functional, organism-based.
Data set [4] is described as follows: Cytotoxicity against HEL cells assessed as reduction in cell growth. Conditions: human. The data set is classed as cell-based.
In data set [5] the test system is Human betaherpesvirus 5. The data set is described as follows: Antiviral activity against HCMV AD169 infected in HEL cells assessed as reduction of virus-induced cytopathogenicity after 3 days. The note with it: Human betaherpesvirus 5, AD169, HEL, 72 h. The data set is classed as functional, organism-based.
Another data set relates to CCRF-CEM. The data set is described as follows: Cytostatic activity against human CEM cells after 72 hrs by MTT assay. The class given is functional, cell-based.
Another data set concerns HeLa. The data set is described as follows: Cytostatic activity against human HeLa cells after 72 hrs by MTT assay. The class given is functional, cell-based.
Data set [6] in a line: Cytotoxicity against HEL cells assessed as change in cell morphology. The class given is cell-based. Conditions: human.
A further data set has as its system MIA PaCa-2. The data set is described as follows: Cytostatic activity against human MiaPaCa2 cells after 72 hrs by MTT assay. The class given is functional, cell-based. The note with it: MIA PaCa-2, 72 h.
Data set [7] has as its system Coxsackievirus B4. Description: Antiviral activity against Coxsackievirus B4 infected in HeLa cells assessed as reduction of virus-induced cytopathogenicity. The class given is functional, organism-based.
A further data set concerns Human respirovirus 3. Description: Antiviral activity against parainfluenza virus 3 infected in african green monkey Vero cells assessed as reduction of virus-induced cytopathogenicity. The class given is functional, organism-based.
Data set [8] relates to Vesicular stomatitis virus. Description: Antiviral activity against vesicular stomatitis virus infected in HEL cells assessed as reduction of virus-induced cytopathogenicity. The data set is classed as functional, organism-based.
For data set [9], the system named is Coxsackievirus B4. The data set is described as follows: Antiviral activity against Coxsackievirus B4 infected in african green monkey Vero cells assessed as reduction of virus-induced cytopathogenicity. The data set is classed as functional, organism-based.
Data set [10] in a line: Cytostatic activity against human Molt4/C8 cells after 72 hrs by MTT assay. The class given is functional, cell-based. The note with it: MOLT-4, 72 h.
In another data set the test system is MCF7. Description: Cytostatic activity against human MCF7 cells after 72 hrs by MTT assay. The data set is classed as functional, cell-based. The note with it: MCF7, 72 h.
Data set [11] deals with Mammalian orthoreovirus 1. Description: Antiviral activity against Reovirus 1 infected in african green monkey Vero cells assessed as reduction of virus-induced cytopathogenicity. The class given is functional, organism-based.
For data set [12], the system named is Human betaherpesvirus 5. The data set is described as follows: Antiviral activity against HCMV Davis infected in HEL cells assessed as reduction of virus-induced cytopathogenicity after 3 days. The data set is classed as functional, organism-based. The note with it: Human betaherpesvirus 5, Davis, 72 h.
The test system of another data set is Sindbis virus. The data set is described as follows: Antiviral activity against Sindbis virus infected in african green monkey Vero cells assessed as reduction of virus-induced cytopathogenicity. The class given is functional, organism-based.
The next data set deals with Punta Toro virus. Description: Antiviral activity against Punta Toro virus infected in african green monkey Vero cells assessed as reduction of virus-induced cytopathogenicity. The class given is functional, organism-based.
The next data set relates to NCI-H460. The data set is described as follows: Cytostatic activity against human H460 cells after 72 hrs by MTT assay. The class given is functional, cell-based. Conditions: NCI-H460, 72 h.

Calls of active or inactive are those of the source. No cut-off for these calls is given here.

One may read the IC50 as the concentration that inhibits the measured activity by half. As usually defined, the CC50 is the concentration that lowers cell viability or growth by half. As a reminder, the EC50 is the concentration giving half of the maximal effect. As for `COc1cc(NC(C)CCCNC(=O)NC2CCCCC2)c2ncccc2c1` (configuration not stated), the result (in the data set with Human alphaherpesvirus 2; in data set [2]; in the data set on Human alphaherpesvirus 1; in data set [3]; with Coxsackievirus B4 [7]; in the data set with Human respirovirus 3) was inactive. For the same molecule, the outcome (in data set [8]; in the data set on Coxsackievirus B4 [9]; in [11]; in the data set with Sindbis virus; with Punta Toro virus) was inactive. In addition, the IC50 in the data set on SW-620 was 49 µM; in data set [1], over 100 µM; with L1210 it was 23 µM; with CCRF-CEM, 36 µM; in the data set with HeLa, over 100 µM; with MIA PaCa-2, 38 µM. The IC50 in data set [10] worked out at 50 µM; with MCF7 it was 41 µM; in the data set on NCI-H460, 77 µM. Moreover, the CC50 in data set [4] turned out to be 94 µM. Besides, the EC50 turned out to be 53 µM in the data set with Human betaherpesvirus 5 [5] and 10.5 µM in the data set with Human betaherpesvirus 5 [12]. Besides, the MCC in [6] worked out at 100 µM.

Turning to `COc1cc(NC(C)CCCNC(=O)N(C2CCCCC2)C2CCCCC2)c2ncccc2c1` (configuration not stated), the outcome (in the data set on Human alphaherpesvirus 2; in data set [2]; in the data set with Human alphaherpesvirus 1; in data set [3]; with Coxsackievirus B4 [7]; in the data set with Human respirovirus 3) was inactive. Further, the outcome (in [8]; in the data set with Coxsackievirus B4 [9]; in data set [11]; in the data set on Sindbis virus; with Punta Toro virus) was inactive. In addition, the IC50 turned out to be 15 µM in the data set on SW-620; 18 µM in data set [1]; 15 µM in the data set on L1210; 13 µM in the data set on CCRF-CEM; 23 µM in the data set with HeLa; 17 µM with MIA PaCa-2. Moreover, the results for the IC50 (in [10]; in the data set on MCF7; in the data set with NCI-H460) were 36 µM, 9 µM and 21 µM, respectively. For the same molecule, in data set [4], the CC50 was 27 µM. Also, the EC50 with Human betaherpesvirus 5 [5] and with Human betaherpesvirus 5 [12] was over 0.8 µM in each case. Also, the MCC in data set [6] was determined as 4 µM.

As to `COc1cc(NC(C)CCCNC(=O)NC(c2ccccc2)c2ccccc2)c2ncccc2c1` (configuration not stated), the result (with Human alphaherpesvirus 2; in [2]; in the data set with Human alphaherpesvirus 1; in data set [3]; with Coxsackievirus B4 [7]; in the data set with Human respirovirus 3) was inactive. For the same molecule, the outcome (in [8]; with Coxsackievirus B4 [9]; in [11]; in the data set with Sindbis virus; in the data set with Punta Toro virus) was inactive. The IC50 in the data set with SW-620 was 58 µM; in data set [1] it was over 100 µM; in the data set on L1210 it was over 500 µM; with CCRF-CEM, 142 µM; in the data set with HeLa it was 100 µM; in the data set with MIA PaCa-2 it was 100 µM. Further, the results for the IC50 (in data set [10]; in the data set on MCF7; with NCI-H460) were at least 500 µM, over 100 µM and over 100 µM, respectively. Further, in [4], the CC50 is over 100 µM. In addition, the EC50 in the data set with Human betaherpesvirus 5 [5] and in the data set on Human betaherpesvirus 5 [12] was over 100 µM in each case. In addition, the MCC in data set [6] was over 100 µM.
